Measured values reported in patent publication US20080234345A1, “METHOD FOR REDUCING OR ALLEVIATING INFLAMMATION IN THE DIGESTIVE TRACT” (Gene Logic Inc., priority 2006, published 2008).

Test system: DSS-induced colitis in Balb/c mice
Test: DSS-induced histological effects in colon of Balb/c mice (Example 6)
Assay type: in vivo
Protocol: A study was designed with five groups of Balb/c mice: naïve control, DSS followed by vehicle, DSS followed by dexamethasone 3 mg/kg/day, DSS followed by GL1001 10 mg/kg/day, and DSS followed by GL1001 100 mg/kg/day. Administration of DSS was via drinking water (DSS 5% in water), from day 0 to day 7 of the study. […] Administration of vehicle, dexamethasone and GL1001 was subcutaneous, once daily, from day 7 until termination of the study (day 14).
At termination of the study, samples from proximal, transverse and distal portions of the colon of each animal were collected for histological analysis, which included: • (a) inflammation score (0-5), based on leukocyte infiltration in mucosa and submucosa, crypt abcess and edema; • (b) glandular score (0-5), based on crypt destruction (crypts function to produce mucin and generate epithelium); and • (c) erosion score (0-5), based on integrity of epithelium or degree of ulceration thereof. A total histopathological score was obtained by adding the scores from (a), (b) and (c) above.

[1] = GL1001 100 mg/kg/day s.c. once daily

`CC(C)C[C@H](N[C@@H](Cc1cncn1Cc1cc(Cl)cc(Cl)c1)C(=O)O)C(=O)O` [GL1001, (S,S)-2-[1-carboxy-2-[3-(3,5-dichlorobenzyl)-3H-imidazol-4-yl]-ethylamino]-4-methylpentanoic acid] was tested, and the histological effect (GL1001 10 mg/kg/day s.c.) was “No significant histological effect”, the “micrograph of distal colon section (FIG. 14)” value (GL1001 100 mg/kg s.c. once daily, one animal) was “Inflammation and gland loss are mild, and no erosion is seen” and the “erosion score, distal colon” value [1] was “significantly reduced”. The “glandular score, distal colon” value [1] was “significantly reduced”, the “inflammation score, distal colon” value [1] was “significantly reduced” and the “total histopathological score, distal colon” value [1] was “significantly reduced”. For the same molecule, the “disease activity (based on fecal samples)” value (s.c. once daily day 7-14, dexamethasone 3 mg/kg/day, GL1001 10 and 100 mg/kg/day) was “No significant improvement”.
